# Test system: Male ddY mice
# Test: Suppressing activity on morphine analgesic tolerance (hot plate method, response latency)
# Type: in vivo
# Conditions: for ΔChange (Latency at each time point − Pre value) 0.5 h: day 7, 0.5 h; for ΔChange (Latency at each time point − Pre value) 1 h: day 7, 1 h; for ΔChange (Latency at each time point − Pre value) 2 h: day 7, 2 h
# [1] = Table 4, Compound (IIA) 100 mg/kg p.o. repeatedly administered alone
# [2] = Table 4, repeated combination group: Compound (IIA) 100 mg/kg p.o. 30 min before each morphine 6 mg/kg s.c., 7 days
# [3] = Table 5, compound 30 mg/kg p.o. repeatedly administered alone
# [4] = Table 5, repeated combination group: compound 30 mg/kg p.o. 30 min before each morphine 6 mg/kg s.c., 7 days
# [5] = Test Example 6, compound 30 mg/kg p.o. 30 min before each morphine 6 mg/kg s.c., 7 days
# [6] = Test Example 6, compound 30 mg/kg p.o. repeatedly administered alone
# [7] = Table 2, Compound (IIIC) 1 mg/kg p.o. repeatedly administered alone
# [8] = Table 2, repeated combination group: Compound (IIIC) 1 mg/kg p.o. 30 min before each morphine 6 mg/kg s.c., 7 days
# [9] = Table 1, Compound (IIIB) 3 mg/kg p.o. repeatedly administered alone
# [10] = Table 1, repeated combination group: Compound (IIIB) 3 mg/kg p.o. 30 min before each morphine 6 mg/kg s.c., 7 days
# [11] = Table 4, Compound (VIA) 30 mg/kg p.o. repeatedly administered alone
# [12] = Table 4, repeated combination group: Compound (VIA) 30 mg/kg p.o. 30 min before each morphine 6 mg/kg s.c., 7 days
# [13] = Table 4, Compound (VII) 60 mg/kg p.o. repeatedly administered alone
# [14] = Table 4, repeated combination group: Compound (VII) 60 mg/kg p.o. 30 min before each morphine 6 mg/kg s.c., 7 days
compound,measurement,setting,value
CC(C)(O)CCN1CCN(c2cc3nc(-c4ccco4)nn3c(N)n2)CC1 [Compound (IIA)],ΔChange (Latency at each time point − Pre value) 0.5 h,[1],1.2 ± 1.5 s
same,ΔChange (Latency at each time point − Pre value) 1 h,[1],1.7 ± 1.4 s
same,ΔChange (Latency at each time point − Pre value) 2 h,[1],0.9 ± 1.1 s
same,ΔChange (Latency at each time point − Pre value) 0.5 h,[2],12.8 ± 1.9 s
same,ΔChange (Latency at each time point − Pre value) 1 h,[2],6.4 ± 1.7 s
same,ΔChange (Latency at each time point − Pre value) 2 h,[2],2.4 ± 1.2 s
same,development of analgesic tolerance (response latency),"Test Example 5, Compound (IIA) 100 mg/kg p.o. 30 min before each morphine 6 mg/kg s.c., 7 days",the development of analgesic tolerance was prevented
same,effect on the response latency,"Test Example 5, Compound (IIA) 100 mg/kg p.o. repeatedly administered alone",the effect on the response latency was not observed
COCCOc1ccc(N2CCN(CCn3ncc4c3nc(N)n3nc(-c5ccco5)nc43)CC2)cc1 [Compound (IVA)],ΔChange (Latency at each time point − Pre value) 0.5 h,[3],0.5 ± 0.6 s
same,ΔChange (Latency at each time point − Pre value) 1 h,[3],−0.4 ± 1.0 ^ sec
same,ΔChange (Latency at each time point − Pre value) 2 h,[3],-0.5 ± 1.4 s
same,ΔChange (Latency at each time point − Pre value) 0.5 h,[4],14.9 ± 1.6 s
same,ΔChange (Latency at each time point − Pre value) 1 h,[4],8.3 ± 0.4 s
same,ΔChange (Latency at each time point − Pre value) 2 h,[4],0.7 ± 1.1 s
same,development of analgesic tolerance (response latency),[5],the development of analgesic tolerance was prevented
same,effect on the response latency,[6],the effect on the response latency was not observed
Cc1cc(Cn2nnc3c(-c4ccco4)nc(N)nc32)ccc1N [Compound (VIII)],ΔChange (Latency at each time point − Pre value) 0.5 h,[3],−0.5 ± 0.9 ^ sec
same,ΔChange (Latency at each time point − Pre value) 1 h,[3],0.1 ± 0.9 s
same,ΔChange (Latency at each time point − Pre value) 2 h,[3],-1.1 ± 1.1 s
same,ΔChange (Latency at each time point − Pre value) 0.5 h,[4],13.6 ± 1.6 s
same,ΔChange (Latency at each time point − Pre value) 1 h,[4],7.8 ± 0.8 s
same,ΔChange (Latency at each time point − Pre value) 2 h,[4],1.1 ± 0.8 s
same,development of analgesic tolerance (response latency),[5],the development of analgesic tolerance was prevented
same,effect on the response latency,[6],the effect on the response latency was not observed
Cc1ccc(C(=O)Nc2nc(-c3ccco3)c(C(=O)C3CCOCC3)s2)cn1 [Compound (IIIC)],ΔChange (Latency at each time point − Pre value) 0.5 h,[7],−2.2 ± 1.3^ sec
same,ΔChange (Latency at each time point − Pre value) 1 h,[7],-1.0 ± 0.7 s
same,ΔChange (Latency at each time point − Pre value) 2 h,[7],-1.0 ± 0.9 s
same,ΔChange (Latency at each time point − Pre value) 0.5 h,[8],16.1 ± 2.4 s
same,ΔChange (Latency at each time point − Pre value) 1 h,[8],9.3 ± 1.6 s
same,ΔChange (Latency at each time point − Pre value) 2 h,[8],1.9 ± 0.9 s
same,development of analgesic tolerance (response latency),"Test Example 3, Compound (IIIC) 1 mg/kg p.o. 30 min before each morphine 6 mg/kg s.c., 7 days",the development of analgesic tolerance was prevented
same,effect on the response latency,"Test Example 3, Compound (IIIC) 1 mg/kg p.o. repeatedly administered alone",the effect on the response latency was not observed
Cc1ncc(C(=O)Nc2nc(-c3ccco3)c(C(=O)C3CCOCC3)s2)cn1 [Compound (IIIB)],ΔChange (Latency at each time point − Pre value) 0.5 h,[9],0.1 ± 0.5 s
same,ΔChange (Latency at each time point − Pre value) 1 h,[9],−0.1 ± 0.4 ^ sec
same,ΔChange (Latency at each time point − Pre value) 2 h,[9],0.4 ± 1.2 s
same,ΔChange (Latency at each time point − Pre value) 0.5 h,[10],18.2 ± 1.2 s
same,ΔChange (Latency at each time point − Pre value) 1 h,[10],13.5 ± 0.8 s
same,ΔChange (Latency at each time point − Pre value) 2 h,[10],4.8 ± 0.7 s
same,development of analgesic tolerance (response latency),"Test Example 3, Compound (IIIB) 3 mg/kg p.o. 30 min before each morphine 6 mg/kg s.c., 7 days",the development of analgesic tolerance was prevented
same,effect on the response latency,"Test Example 3, Compound (IIIB) 3 mg/kg p.o. repeatedly administered alone",the effect on the response latency was not observed
CCCCc1nc(N)c2nc(-n3nccn3)n(C)c2n1 [Compound (VIA)],ΔChange (Latency at each time point − Pre value) 0.5 h,[11],-0.8 ± 1.3 s
same,ΔChange (Latency at each time point − Pre value) 1 h,[11],0.2 ± 2.1 s
same,ΔChange (Latency at each time point − Pre value) 2 h,[11],-0.2 ± 1.1 s
same,ΔChange (Latency at each time point − Pre value) 0.5 h,[12],13.0 ± 2.4 s
same,ΔChange (Latency at each time point − Pre value) 1 h,[12],7.6 ± 1.7 s
same,ΔChange (Latency at each time point − Pre value) 2 h,[12],1.9 ± 1.3 s
same,development of analgesic tolerance (response latency),"Test Example 5, Compound (VIA) 30 mg/kg p.o. 30 min before each morphine 6 mg/kg s.c., 7 days",the development of analgesic tolerance was prevented
same,effect on the response latency,"Test Example 5, Compound (VIA) 30 mg/kg p.o. repeatedly administered alone",the effect on the response latency was not observed
Cc1nc(-c2sc(NC(=O)C3CC3)nc2-c2ccccc2)no1 [Compound (VII)],ΔChange (Latency at each time point − Pre value) 0.5 h,[13],-0.8 ± 1.0 s
same,ΔChange (Latency at each time point − Pre value) 1 h,[13],-0.7 ± 1.0 s
same,ΔChange (Latency at each time point − Pre value) 2 h,[13],0.0 ± 0.6 s
same,ΔChange (Latency at each time point − Pre value) 0.5 h,[14],12.8 ± 2.1 s
same,ΔChange (Latency at each time point − Pre value) 1 h,[14],7.8 ± 1.3 s
same,ΔChange (Latency at each time point − Pre value) 2 h,[14],1.8 ± 0.8 s
same,development of analgesic tolerance (response latency),"Test Example 5, Compound (VII) 60 mg/kg p.o. 30 min before each morphine 6 mg/kg s.c., 7 days",the development of analgesic tolerance was prevented
same,effect on the response latency,"Test Example 5, Compound (VII) 60 mg/kg p.o. repeatedly administered alone",the effect on the response latency was not observed

# — patent US8865731B2, “Inhibitor of analgesic tolerance” (Kyowa Hakko Kirin Co., Ltd., priority 2008, dated 2014)
